In brackets after ≈: the same amount, converted by molar mass.
Test system: Escherichia coli
Test: Antibacterial activity against Escherichia coli HS294 after 18 hrs by microtitre plate method
Assay type: functional

## C[C@H]1CCCC[C@H]2C(=O)C=C[C@H](O)[C@@H]2CC(=O)O1
  MIC: 40 µg/mL (≈ 159 µM)

— ChEMBL document CHEMBL1147255, “Isolation and structure elucidation of Sch 642305, a novel bacterial DNA primase inhibitor produced by Penicillium verrucosum” (J Nat Prod, 2003)
